Read-outs that look alike come from different tables or passages of the source.
Key:
[1] = test system: histone H2A.Z-HaloTag fusion; assay: Comparison of HaloTag ligands 6HTL and 9HTL in live yeast; assay type: cell-based, S. cerevisiae; details: 10 nM, 2 h, washed, wide-field fluorescence
Procedure: Comparison of HaloTag ligands 6HTL and 9HTL. in live yeast. A S. cerevisiae strain expressing a histone H2A.Z-HaloTag fusion under natural promoter control was created; the PDR5 transporter gene was also deleted for improved cellular retention of fluorescent ligands. Cells were grown to early log phase and incubated with either JF552-HaloTag ligand (9HTL; 10 nM) or JF549-HaloTag ligand (6HTL; 10 nM) for 2 h. Free ligand was removed by three washes in culture media and the live cells were imaged by wide-field fluorescence microscopy at ambient temperature.

[2] = Introduction, known dyes; cited from earlier work
[3] = Quantum yield determination; assay type: physicochemical; details: for ϕ (fluorescence quantum yield): absolute, integrating sphere
Procedure: (§1) Quantum yield determination. All reported absolute fluorescence quantum yield values (Φ) were measured in the laboratory under identical conditions using a Quantaurus-QY spectrometer (model C11374, Hamamatsu). This instrument uses an integrating sphere to determine photons absorbed and emitted by a sample. Measurements were carried out using dilute samples (A<0.1) and self-absorption corrections were performed using the instrument software^57 when appropriate. Reported values are averages (n=3).

[4] = Absorption of dyes 1 and 2 in the presence of laboratory detergents; assay type: physicochemical; details: 20 mM sodium phosphate buffer, pH 7.0, 5 mg/mL detergent
Procedure: FIGS. 11A-11J. FIG. 11A-Absorption at λabs for dyes 1 and 2 in 20 mM sodium phosphate buffer, pH 7.0 containing 5 mg/mL detergent, error bars show±s.e.m. FIGS. 11B and 11C-Absorption spectra for dyes 1 (FIG. 11B) and 2 (FIG. 11C) near λabs in the presence (dashed line) or absence (solid line) of SDS. FIG. 11D—Chemical structures and properties of HaloTag ligands 1HTL-10HTL; ΔA/A0 indicates the change in absorption (ΔA) and ΔF/F0 indicates the change in fluorescence (ΔF) of the HaloTag ligands upon binding purified HaloTag protein divided by the basal absorption or fluorescence of the free ligand (F0 or A0). FIG. 11E—ΔA/A0 of the HaloTag ligands 1HTL-10HTL vs. KL-Z of the corresponding free dyes 1-10; the solid line indicates a linear fit (R^2=0.93). (f) ΔF/F0 vs. ΔA/A0 for the HaloTag ligands 1HTL-10HTL; the solid line indicates a linear fit (R^2=0.87). FIG. 11G—Normalized absorption (abs, solid line), normalized fluorescence excitation (ex, dashed line), and FIG. 11H—normalized fluorescence emission (em) spectra for dye 8 in 10 mM HEPES, pH 7.3.
The mechanism of SiR/JF646 fluorogenicity. […] The interaction between the Si-rhodamine dyes 1 and 2 and SDS was further characterized by measuring the absorption of 1 or 2 vs. [SDS] and observing the absorbance increase only above the critical micelle concentration (c.m.c.) of SDS (FIG. 1C). […]

[5] = Determination KL-Z and εmax; assay type: physicochemical; details: for εmax: 0.1% TFA in TFE (rhodamine 10), 0.1% TFA in ethanol (Si-rhodamine 8); for KL-Z (lactone-zwitterion equilibrium constant): 1:1 (v/v) dioxane:water, 0.01% triethylamine
Procedure: Determination KL-Z and εmax. The lactone-zwitterion equilibrium constant (KL-Z) was calculated as described previously^18,41 using equation 1: KL-Z=(εdw/εmax)/(1−εdw/εmax) (1) • where εdw is the extinction coefficient of the dyes in a 1:1 (v/v) dioxane:water solvent mixture containing 0.01% (v/v) triethylamine; the dioxane-water mixture was chosen to give a large range of KL-Z values and the triethylamine additive ensures the rhodamines are in the net neutral form. The emax (maximal extinction coefficient) values were measured in 0.1% (v/v) trifluoroacetic acid (TFA) in 2,2,2-trifluoroethanol (TFE) for rhodaminc 10, and 0.1% (v/v) TFA in ethanol for the Si-rhodamine 8.
Instead, a solution of strong acid in alcoholic solvents was used (e.g., TFA in […]) to shift the equilibrium to the open form by protonation of the o-carboxyl group. This decades-old procedure^36 allows estimation of the maximal extinction coefficient (εmax) and determination of KL-Z=(ε/εmax)/(1−ε/εmax).
The KL-Z was determined using ε values measured in 1:1 dioxane:water to ensure a broad distribution of values.^18 An inverse relationship was observed between KL-Z and fluorogenicity, showing that KL-Z is sufficient to accurately predict the increase in fluorescence of rhodamine dyes. This increase in fluorescence is primarily driven by the increase in absorption; chromogenicity is correlated both with KL-Z and fluorogenicity (FIGS. 11E-11J). Importantly, this trend holds across different rhodamine scaffolds including Si-rhodamines (1-3), carborhodamines (4-5), and classic, oxygen-containing rhodamines (6-7, FIG. 1C). Based on this inverse relationship a simple rubric was determined: a dye with KL-Z<10^−2 should yield a HaloTag ligand with at least 10-fold fluorogenicity (FIG. 1E).

[6] = Introduction, known dyes; cited from earlier work; remark: listed apart in the source
[7] = Introduction, known dyes, cited from earlier work; for ε (extinction coefficient): free dye in aqueous solution
[8] = UV-vis and fluorescence spectroscopy; assay type: physicochemical; details: for εw / λabs / λem: 10 mM HEPES, pH 7.3; for hypsochromic shift: relative to parent dye (SiR for SiR110; JF549 for JF525)
Procedure: UV-vis and fluorescence spectroscopy. […] Spectroscopy was performed using 1-cm path length, 3.5-mL quartz cuvettes or 1-cm path length, 1.0-ml quartz microcuvettes (Starna Cells). All measurements were taken at ambient temperature (22±2° C.). Absorption spectra were recorded on a Cary Model 100 spectrometer (Agilent). Fluorescence spectra were recorded on a Cary Eclipse fluorometer (Varian). Maximum absorption wavelength (λabs), extinction coefficient (εw), and maximum emission wavelength (λem) were taken in 10 mM HEPES, pH 7.3 buffer unless otherwise noted; reported values for ew are averages (n=3). Normalized spectra are shown for clarity.

polyG·polyC DNA (DNAGC) = assay: Quantum yield of 10HST following binding DNA (polyG·polyC); details: PBS pH 7.4, with polyG·polyC DNA duplex
Procedure: as §1
(§2) Measurement of increase in absorbance and fluorescence of 10HST following binding DNA. 10HST (5 μM) was added to phosphate buffered saline (PBS; pH 7.4) containing no DNA (blank), a DNA duplex with sequences 5′-A20-3′ and 5′-T20-3′ (polyA·polyT; i.e., DNAAT; 50 μM; Integrated DNA Technologies), or a DNA duplex with sequences 5′-G20-3′ and 5′-C20-3′ (polyG·polyC; i.e., DNAGC; 50 μM; Integrated DNA Technologies). These solutions were incubated for 2 h at ambient temperature, followed by measurement of absorption spectra. The solutions were then diluted to 500 nM in PBS for measurement of fluorescence spectra or diluted to 1.25 μM in PBS for measurement of quantum yield. Found: 10HST Φ=0.009; 10HST·DNAAT Φ=0.126; 10HST·DNAGC Φ=0.040.

polyA·polyT DNA (DNAAT) = assay: Quantum yield of 10HST following binding DNA (polyA·polyT); details: PBS pH 7.4, with polyA·polyT DNA duplex
Procedure: as §1, §2

Row | ϕ (fluorescence quantum yield) [3] | εmax [5] | KL-Z (lactone-zwitterion equilibrium constant) [5] | εw [8] | λabs [8] | λem [8] | Compound | also measured
1 | 0.67 | 121,000 M^−1cm^−1 | 0.091 | 99,000 M^−1cm^−1 | 608 nm | 631 nm | CC1(C)c2cc(N3CCC3)ccc2C2(OC(=O)c3ccccc32)c2ccc(N3CCC3)cc21 [dye 4, JF608] | –
2 | 0.78 | 156,000 M^−1cm^−1 | <0.0001 | 1,500 M^−1cm^−1 | 585 nm | 609 nm | CC1(C)c2cc(N3CC(F)(F)C3)ccc2C2(OC(=O)c3ccccc32)c2ccc(N3CC(F)(F)C3)cc21 [dye 5, JF585] | –
3 | 0.88 | 134,000 M^−1cm^−1 | 3.5 | 101,000 M^−1cm^−1 | 549 nm | 571 nm | O=C1OC2(c3ccc(N4CCC4)cc3Oc3cc(N4CCC4)ccc32)c2ccccc21 [dye 6, JF549] | –
4 | 0.91 | 122,000 M^−1cm^−1 | 0.068 | 94,000 M^−1cm^−1 | 525 nm | 549 nm | O=C1OC2(c3ccc(N4CC(F)(F)C4)cc3Oc3cc(N4CC(F)(F)C4)ccc32)c2ccccc21 [dye 7, JF525] | hypsochromic shift [8]: ~25 nm
5 | 0.83 | 129,000 M^−1cm^−1 | 0.70 | 95,000 M^−1cm^−1 | 552 nm | 575 nm | O=C([O-])c1ccccc1-c1c2cc(F)c(=[N+]3CCC3)cc-2oc2cc(N3CCC3)c(F)cc12 [dye 9, Janelia Fluor 552] | reduction of KL-Z ([5]; relative to JF549): 5 fold

The remaining lines, values behind:

Row | Compound | ϕ (fluorescence quantum yield) [3] | εmax [5] | KL-Z (lactone-zwitterion equilibrium constant) [5] | εw [8] | λabs [8] | λem [8] | also measured
6 | O=C(NCCOCCOCCCCCCCl)c1ccc2c(c1)C1(OC2=O)c2ccc(N3CCC3)cc2Oc2cc(N3CCC3)ccc21 [6HTL] | – | – | – | – | – | – | labeling of yeast nuclei (fluorescence signal) [1]: relatively poor labeling
7 | O=C(NCCOCCOCCCCCCCl)c1ccc(C(=O)[O-])c(-c2c3cc(F)c(=[N+]4CCC4)cc-3oc3cc(N4CCC4)c(F)cc23)c1 [9HTL, JF552-HaloTag ligand] | – | – | – | – | – | – | labeling of yeast nuclei (fluorescence signal) [1]: high fluorescence signal
8 | CN(C)c1ccc2c(c1)[Si](C)(C)c1cc(N(C)C)ccc1C21OC(=O)c2ccccc21 [dye 1, tetramethyl-Si-rhodamine] | 0.41 | 141,000 M^−1cm^−1 | 0.0034 | – | – | – | Φ (fluorescence quantum yield) [2]: 0.41; change of absorption with detergents [4]: absorbance increases only in the presence of SDS; KL-Z [6]: 0.0034
9 | C[Si]1(C)c2cc(N3CCC3)ccc2C2(OC(=O)c3ccccc32)c2ccc(N3CCC3)cc21 [dye 2, JF646] | 0.54 | 152,000 M^−1cm^−1 | 0.0012 | 5,000 M^−1cm^−1 | 646 nm | 664 nm | Φ (fluorescence quantum yield) [2]: 0.54; λabs [7]: 646 nm; λem [7]: 664 nm; ε (extinction coefficient) [7]: 5,000 M^−1 cm^−1; change of absorption with detergents [4]: absorbance increases only in the presence of SDS; KL-Z [6]: 0.0012
10 | C[Si]1(C)c2cc(N3CC(F)C3)ccc2C2(OC(=O)c3ccccc32)c2ccc(N3CC(F)C3)cc21 [dye 3, JF635] | 0.56 | 167,000 M^−1cm^−1 | <0.0001 | ~400 M⁻¹ cm⁻¹ | 635 nm | 652 nm | Φ (fluorescence quantum yield) [2]: 0.54; λabs [7]: 635 nm; λem [7]: 652 nm; ε (extinction coefficient) [7]: 400 M⁻¹ cm⁻¹; KL-Z [6]: < 0.0001
11 | JF526-Hoechst [10HST] | – | – | – | – | – | – | Φ (polyG·polyC DNA (DNAGC)): 0.040; Φ ([3]; PBS pH 7.4, no DNA (blank), 1.25 μM): 0.009; Φ (polyA·polyT DNA (DNAAT)): 0.126
12 | Si-Rhodamine 110 [dye 8] | 0.53 | 94,000 M^−1cm^−1 | 0.0043 | 2,200 M^−1cm^−1 | 587 nm | 609 nm | hypsochromic shift [8]: ~50 nm

From US12440581B2, “Fluorophores for super-resolution imaging” (HOWARD HUGHES MEDICAL INSTITUTE, priority 2019, dated 2025)
